The supplement of paper PMC10307832

Legend:
Assay in all cases: relative viability (nuclei count vs DMSO), 5 days (fraction); higher = more cells survive
[1] = compound: CC1=CC(=CC=C1)NC2=NC(=CS2)C3=CC=NC=C3 + NC(=O)Nc1cc(-c2cccc(F)c2)sc1C(=O)N[C@H]1CCCNC1 [AZD7762] (partner 0.2 µM)
Method in brief: (§1)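 Nuclei were stained with Hoechst during a one-step fixation (final 0.05% Triton X-100, 1% formaldehyde, 1 ug/ml Hoechst) carried out 5 days after dosing, then counted on 4× images. The cells, lung cancer lines in 1536-well plates, had been dosed by pin tool the day after seeding with one drug alone or a fixed anchor-drug dose plus five library-drug doses (not always all listed) in √10 steps. Relative viability is the nuclei count in treated wells divided by that in vehicle wells, and each value is the median of duplicate plates.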

Masitinib + Phenformin = compound: Cc1ccc(NC(=O)c2ccc(CN3CCN(C)CC3)cc2)cc1Nc1nc(-c2cccnc2)cs1 [Masitinib] + N=C(N)NC(=N)NCCc1ccccc1 [Phenformin] (partner 250 µM)
Method in brief: as §1

[2] = compound: CC1=CC(=CC=C1)NC2=NC(=CS2)C3=CC=NC=C3 + Cc1cc(Nc2cc(N3CCN(C)CC3)nc(Sc3ccc(NC(=O)C4CC4)cc3)n2)n[nH]1 [Tozasertib] (partner 0.1 µM)
Method in brief: as §1

[3] = compound: CC1=CC(=CC=C1)NC2=NC(=CS2)C3=CC=NC=C3 + Nc1nc2[nH]cc(CCc3ccc(C(=O)N[C@@H](CCC(=O)O)C(=O)O)cc3)c2c(=O)[nH]1 [Pemetrexed] (partner 0.2 µM)
Method in brief: as §1

Cell Line | relative viability ([1]; first compound 0.08 µM) | relative viability ([1]; first compound 0.253 µM) | relative viability ([1]; first compound 0.8 µM) | relative viability ([1]; first compound 2.53 µM) | relative viability ([1]; first compound 8 µM) | relative viability (Masitinib + Phenformin; first compound 0.01 µM) | relative viability (Masitinib + Phenformin; first compound 0.03162 µM) | relative viability (Masitinib + Phenformin; first compound 0.1 µM) | relative viability (Masitinib + Phenformin; first compound 0.3162 µM) | relative viability (Masitinib + Phenformin; first compound 1 µM) | relative viability ([2]; first compound 0.08 µM) | relative viability ([2]; first compound 0.253 µM) | relative viability ([2]; first compound 0.8 µM) | relative viability ([2]; first compound 2.53 µM) | relative viability ([2]; first compound 8 µM) | relative viability ([3]; first compound 0.08 µM) | relative viability ([3]; first compound 0.253 µM) | relative viability ([3]; first compound 0.8 µM) | relative viability ([3]; first compound 2.53 µM) | relative viability ([3]; first compound 8 µM)
NCI-H1651 | 0.5 | 0.473 | 0.416 | 0.426 | 0.366 | 0.341 | 0.29 | 0.337 | 0.375 | 0.31 | 0.62 | 0.684 | 0.561 | 0.531 | 0.51 | 0.55 | 0.604 | 0.648 | 0.498 | 0.598
NCI-H1666 | 0.766 | 0.715 | 0.607 | 0.548 | 0.68 |  | 0.527 | 0.637 | 0.487 | 0.56 | 0.588 | 0.56 | 0.503 | 0.582 | 0.436 | 0.787 | 0.749 | 0.603 | 0.738 | 0.674
NCI-H1734 | 0.559 | 0.554 | 0.528 | 0.647 | 0.558 | 0.423 | 0.423 | 0.493 | 0.379 | 0.339 | 0.25 | 0.285 | 0.22 | 0.246 | 0.23 | 0.374 | 0.421 | 0.409 | 0.44 | 0.371
NCI-H1755 | 0.491 | 0.418 | 0.46 | 0.486 | 0.376 |  | 0.51 | 0.545 | 0.597 | 0.581 | 0.539 | 0.608 | 0.47 | 0.539 | 0.394 | 0.35 | 0.445 | 0.393 | 0.401 | 0.397
NCI-H1793 | 0.366 | 0.487 | 0.522 | 0.789 | 0.407 | 0.329 | 0.357 | 0.405 | 0.349 | 0.262 | 0.298 | 0.335 | 0.27 | 0.242 | 0.21 | 0.603 | 0.779 | 0.808 | 0.604 | 0.957
NCI-H1915 | 0.755 | 0.665 | 0.689 | 0.686 | 0.667 |  | 0.367 |  | 0.401 | 0.349 | 0.455 | 0.442 | 0.411 | 0.367 | 0.404 | 0.496 | 0.493 | 0.508 | 0.508 | 0.401
NCI-H1944 | 0.401 | 0.552 | 0.706 | 0.527 | 0.47 |  | 0.196 |  | 0.196 | 0.186 | 0.291 | 0.24 | 0.226 | 0.203 | 0.178 | 0.543 | 0.6 | 0.636 | 0.654 | 0.476
NCI-H1975 | 0.579 | 0.532 | 0.591 | 0.462 | 0.439 | 0.405 | 0.402 | 0.422 |  | 0.408 | 0.693 | 0.654 | 0.281 | 0.181 | 0.179 | 0.277 | 0.25 | 0.257 | 0.24 | 0.239
NCI-H1993 | 0.688 | 0.706 | 0.641 | 0.682 | 0.749 | 0.5 | 0.469 | 0.603 | 0.523 | 0.451 | 0.543 | 0.605 | 0.562 | 0.617 | 0.519 | 0.507 | 0.517 | 0.618 | 0.547 | 0.578
NCI-H2085 | 0.904 | 1.01 | 0.847 | 0.993 | 0.575 | 0.631 | 0.717 | 0.771 | 0.778 | 0.657 | 0.748 | 0.744 | 0.652 | 0.467 | 0.421 | 0.774 | 0.943 | 0.84 | 0.806 | 0.711
NCI-H2087 | 1.41 | 1.29 | 1.14 | 1.43 | 1.17 | 0.347 | 0.393 | 0.534 | 0.5 | 0.393 | 0.197 | 0.229 | 0.245 | 0.19 | 0.216 | 0.637 | 0.623 | 0.591 | 0.63 | 0.711
NCI-H2126 | 0.967 | 1.09 | 1.06 | 0.95 | 0.981 | 0.515 | 0.548 | 0.552 | 0.507 | 0.503 | 0.77 | 0.756 | 0.798 | 0.686 | 0.737 | 0.596 | 0.599 | 0.657 | 0.599 | 0.719
NCI-H2170 | 0.776 | 0.829 | 0.706 | 0.749 | 0.521 | 0.354 | 0.396 | 0.386 | 0.386 | 0.378 | 0.729 | 0.71 | 0.663 | 0.793 | 0.628 | 0.229 | 0.286 | 0.27 | 0.26 | 0.264
NCI-H2342 | 0.44 | 0.403 | 0.505 | 0.377 | 0.523 | 0.71 | 0.567 | 0.615 | 0.614 | 0.573 | 0.533 | 0.423 | 0.573 | 0.476 | 0.505 | 0.615 | 0.796 | 0.765 | 0.789 | 0.759
NCI-H2347 | 0.613 | 0.731 | 0.699 | 0.778 | 0.72 | 0.391 | 0.402 | 0.333 | 0.374 | 0.327 | 0.51 | 0.605 |  | 0.489 | 0.489 | 0.431 | 0.42 | 0.41 | 0.404 | 0.385
NCI-H2405 | 0.675 | 0.716 | 0.667 |  | 0.664 | 0.379 | 0.366 | 0.399 | 0.459 | 0.247 | 0.65 | 0.727 | 0.541 | 0.691 | 0.602 | 0.921 | 0.985 | 0.999 |  | 0.903
NCI-H3122 | 0.946 | 1.01 | 1.04 | 1.04 | 0.96 |  | 0.396 |  | 0.315 | 0.312 | 0.386 | 0.455 | 0.47 | 0.384 | 0.457 | 0.202 | 0.202 | 0.191 | 0.226 | 0.19
